A word on the IC50: it is the concentration that inhibits the measured activity by half. A lower IC50 goes with greater potency in that assay.

The structures appear in SMILES notation.

T1 sequence (Q9H3N8 whole entry): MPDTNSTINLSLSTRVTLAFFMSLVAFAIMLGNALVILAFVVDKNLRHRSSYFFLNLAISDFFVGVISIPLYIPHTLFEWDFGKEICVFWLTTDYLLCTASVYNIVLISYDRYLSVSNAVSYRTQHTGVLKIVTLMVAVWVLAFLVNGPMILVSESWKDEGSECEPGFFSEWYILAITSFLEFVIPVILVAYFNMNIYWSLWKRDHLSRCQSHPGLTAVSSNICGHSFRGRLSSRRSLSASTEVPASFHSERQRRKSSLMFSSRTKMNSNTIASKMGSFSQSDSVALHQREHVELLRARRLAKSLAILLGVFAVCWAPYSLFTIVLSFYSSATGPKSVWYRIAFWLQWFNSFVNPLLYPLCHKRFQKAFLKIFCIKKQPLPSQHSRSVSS

This test concerns the target T1, histamine H4 receptor (Homo sapiens, UniProt Q9H3N8).
T1 construct: expressed in transfected cells; host or cells: HEK293SFM cells (membrane preparation)
Description: Inhibition of histamine H4 receptor (Table A1; H4 membrane binding assay). To be noted: histamine H4 receptor; "> a" = exceeds experiment limit. The method, boiled down: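 Radioligand binding was measured by filtration through PEI-treated GF/B filters with scintillation counting, using 1000× unlabeled ligand to define nonspecific binding. Membranes were prepared from HEK293SFM cells recombinantly expressing human H4 in ice-cold 50 mM Tris-HCl, pH 7.5, plus protease inhibitors.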
Molecule `CCOc1nc(-c2ccc3c(c2)CN(c2cc(N4CCN(C)CC4)nc(N)n2)C(C)C3)cs1` (stereo not drawn) [Example 117, 4-[7-(2-Ethoxy-1,3-thiazol-4-yl)-3-methyl-3,4-dihydroisoquinolin-2(1H)-yl]-6-(4-methylpiperazin-1-yl)pyrimidin-2-amine] registered a concentration for half-maximal inhibition (IC50) of 43 nM.

Consider `CC1Cc2ccc(-c3cnn(C)c3)cc2CN1c1cc(N2CC[C@@H](N)C2)nc(N)n1` (stereo partly drawn) [Example 118, 4-[(3R)-3-Aminopyrrolidin-1-yl]-6-[3-methyl-7-(1-methyl-1H-pyrazol-4-yl)-3,4-dihydroisoquinolin-2(1H)-yl]pyrimidin-2-amine], for which the 50% inhibitory concentration (IC50) was determined as 255 nM.

Consider `CC1Cc2ccc(-c3cnn(C)c3)cc2CN1c1cc(N2CCC(N)CC2)nc(N)n1` (stereo not drawn) [Example 120, 4-(4-Aminopiperidin-1-yl)-6-[3-methyl-7-(1-methyl-1H-pyrazol-4-yl)-3,4-dihydroisoquinolin-2 (1H)-yl]pyrimidin-2-amine], for which the IC50 came out at 40 nM. Against the preceding molecule, the IC50 is about 6.4-fold lower.

`CC1Cc2ccc(-c3cnn(C)c3)cc2CN1c1cc(N2CCNCC2)nc(N)n1` (stereo not drawn) [Example 121, 4-[3-Methyl-7-(1-methyl-1H-pyrazol-4-yl)-3,4-dihydroisoquinolin-2 (1H)-yl]-6-piperazin-1-ylpyrimidin-2-amine] displayed a half-inhibitory concentration (IC50) of 24 nM.

Molecule `CC1Cc2ccc(-c3cnn(C)c3)cc2CN1c1cc(N2CCCNCC2)nc(N)n1` (stereo not drawn) [Example 122, 4-(1,4-Diazepan-1-yl)-6-[3-methyl-7-(1-methyl-1H-pyrazol-4-yl)-3,4-dihydroisoquinolin-2(1H)-yl]pyrimidin-2-amine] returned an IC50 of 51 nM. Against the preceding molecule, the IC50 is about 2.1-fold higher.

Molecule `CC1Cc2ccc(-c3cnn(C)c3)cc2CN1c1cc(N2CC3CC2CN3)nc(N)n1` (stereo not drawn) [Example 123, 4-(2,5-Diazabicyclo[2.1.1]hept-2-yl)-6-[3-methyl-7-(1-methyl-1H-pyrazol-4-yl)-3,4-dihydroisoquinolin-2(1H)-yl]pyrimidin-2-amine] gave an IC50 of 124 nM. This IC50 is about 2.4-fold higher than that of the molecule before.

The molecule `CN[C@@H]1CCN(c2cc(N3Cc4cc(-c5cnn(C)c5)ccc4CC3C)nc(N)n2)C1` (stereo partly drawn) [Example 124, 4-[(3R)-3-(Methylamino)pyrrolidin-1-yl]-6-[3-methyl-7-(1-methyl-1H-pyrazol-4-yl)-3,4-dihydroisoquinolin-2(1H)-yl]pyrimidin-2-amine] gave an IC50 of 121 nM. This IC50 and that of the molecule before are within 1.5-fold of each other.

In turn, `CC1Cc2ccc(-c3cnn(C)c3)cc2CN1c1cc(N2CCCN(C)CC2)nc(N)n1` (stereo not drawn) [Example 125, 4-(4-Methyl-1,4-diazepan-1-yl)-6-[3-methyl-7-(1-methyl-1H-pyrazol-4-yl)-3,4-dihydroisoquinolin-2(1H)-yl]pyrimidin-2-amine] had an IC50 of 56 nM.

`CC1Cc2ccc(-c3cnn(C)c3)cc2CN1c1cc(N2CCN3CCCC3C2)nc(N)n1` (stereo not drawn) [Example 126, 4-(Hexahydropyrrolo[1,2-a]pyrazin-2(1H)-yl)-6-[3-methyl-7-(1-methyl-1H-pyrazol-4-yl)-3,4-dihydroisoquinolin-2(1H)-yl]pyrimidin-2-amine] gave a half-maximal inhibitory concentration (IC50) of 66 nM.

As for `CNC(=O)c1ccc(-c2cc3c(cc2F)CCN(c2cc(N4CCN(C)CC4)nc(N)n2)C3)cn1` [Example 127, 5-{2-[2-Amino-6-(4-methylpiperazin-1-yl)pyrimidin-4-yl]-6-fluoro-1,2,3,4-tetrahydroisoquinolin-7-yl}-N-methylpyridine-2-carboxamide], the half-maximal inhibitory concentration (IC50) stood at 104 nM.

`CN1CCN(c2cc(N3CCc4cc(F)c(-c5cccc(C(=O)N(C)C)c5)cc4C3)nc(N)n2)CC1` [Example 128, 3-{2-[2-Amino-6-(4-methylpiperazin-1-yl)pyrimidin-4-yl]-6-fluoro-1,2,3,4-tetrahydroisoquinolin-7-yl}-N,N-dimethylbenzamide]: the IC50 was 148 nM.

Turning to `CC1Cc2ccc(-c3ccc4c(c3)CN(C3CC3)C4=O)cc2CN1c1cc(N2CCN(C)CC2)nc(N)n1` (stereo not drawn) [Example 129, 5-{2-[2-Amino-6-(4-methylpiperazin-1-yl)pyrimidin-4-yl]-3-methyl-1,2,3,4-tetrahydroisoquinolin-7-yl}-2-cyclopropylisoindolin-1-one], the IC50 stood at 112 nM. The IC50 values of the last two molecules are within 1.5-fold of each other.

With `CNC(=O)c1ccc(-c2ccc3c(c2)CN(c2cc(N4CCN(C)CC4)nc(N)n2)C(C)C3)cc1C` (stereo not drawn) [Example 130, 4-{2-[2-Amino-6-(4-methylpiperazin-1-yl)pyrimidin-4-yl]-3-methyl-1,2,3,4-tetrahydroisoquinolin-7-yl}-N,2-dimethylbenzamide], the IC50 came to 69 nM.

In turn, `CC1Cc2ccc(-c3ccc4c(c3)NC(=O)CO4)cc2CN1c1cc(N2CCN(C)CC2)nc(N)n1` (stereo not drawn) [Example 131, 6-{2-[2-amino-6-(4-methylpiperazin-1-yl)pyrimidin-4-yl]-3-methyl-1,2,3,4-tetrahydroisoquinolin-7-yl}-2H-1,4-benzoxazin-3(4H)-one] gave an IC50 of 30 nM.

Turning to `CC1Cc2ccc(-c3ccc4c(c3)N(C)C(=O)CO4)cc2CN1c1cc(N2CCN(C)CC2)nc(N)n1` (stereo not drawn) [Example 132, 6-{2-[2-Amino-6-(4-methylpiperazin-1-yl)pyrimidin-4-yl]-3-methyl-1,2,3,4-tetrahydroisoquinolin-7-yl}-4-methyl-2H-1,4-benzoxazin-3(4H)-one], the IC50 is 39 nM.

With `CNC(=O)c1cnc(-c2ccc3c(c2)CN(c2cc(N4CCN(C)CC4)nc(N)n2)C(C)C3)s1` (stereo not drawn) [Example 133, 2-{2-[2-amino-6-(4-methylpiperazin-1-yl)pyrimidin-4-yl]-3-methyl-1,2,3,4-tetrahydroisoquinolin-7-yl}-N-methyl-1,3-thiazole-5-carboxamide], the IC50 came out at 59 nM. This IC50 is about 1.5-fold higher than that of the molecule before.

`CC1Cc2ccc(-c3ncc(C(=O)N(C)C)s3)cc2CN1c1cc(N2CCN(C)CC2)nc(N)n1` (stereo not drawn) [Example 134, 2-{2-[2-Amino-6-(4-methylpiperazin-1-yl)pyrimidin-4-yl]-3-methyl-1,2,3,4-tetrahydroisoquinolin-7-yl}-N,N-dimethyl-1,3-thiazole-5-carboxamide] showed a 50% inhibitory concentration (IC50) of 38 nM.

`CC1Cc2ccc(-c3cnc4[nH]cnc4c3)cc2CN1c1cc(N2CCN(C)CC2)nc(N)n1` (stereo not drawn) [Example 135, 4-[7-(3H-Imidazo[4,5-b]pyridin-6-yl)-3-methyl-3,4-dihydroisoquinolin-2(1H)-yl]-6-(4-methylpiperazin-1-yl)pyrimidin-2-amine] returned an IC50 of 48 nM. This IC50 and that of the molecule before are within 1.5-fold of each other.

Take `CC1Cc2ccc(C3=CCN(C(=O)NC4CCCC4)CC3)cc2CN1c1cc(N2CCN(C)CC2)nc(N)n1` (stereo not drawn) [Example 136, 4-{2-[2-Amino-6-(4-methylpiperazin-1-yl)pyrimidin-4-yl]-3-methyl-1,2,3,4-tetrahydroisoquinolin-7-yl}-N-cyclopentyl-3,6-dihydropyridine-1(2H)-carboxamide]: the IC50 was 68 nM.

For `CC1Cc2ccc(C3=CCN(c4cc(C#N)ccn4)CC3)cc2CN1c1cc(N2CCN(C)CC2)nc(N)n1` (stereo not drawn) [Example 137, 4-{2-[2-Amino-6-(4-methylpiperazin-1-yl)pyrimidin-4-yl]-3-methyl-1,2,3,4-tetrahydroisoquinolin-7-yl}-3,6-dihydro-2H-1,2′-bipyridine-4′-carbonitrile], the IC50 was 84 nM.

The molecule `CC1Cc2ccc(C3CCN(C(=O)CC4CCCC4)CC3)cc2CN1c1cc(N2CCN(C)CC2)nc(N)n1` (stereo not drawn) [Example 138, 4-[7-[1-(Cyclopentylacetyl)piperidin-4-yl]-3-methyl-3,4-dihydroisoquinolin-2(1H)-yl]-6-(4-methylpiperazin-1-yl)pyrimidin-2-amine] showed an IC50 of 64 nM.

Values taken from patent US20130244999A1, “Substituted Heterocyclic Compounds” (Incyte Corporation, priority 2008, published 2013).
